Results reported in publication PMC5602538, “Assessment of the Drug Interaction Potential of Unconjugated and GalNAc3-Conjugated 2′-MOE-ASOs” (Molecular Therapy. Nucleic Acids, 2017).
{GalNAc3} = trishexylamino-C6 triantennary GalNAc conjugate; e = 2'-O-(2-methoxyethyl) (MOE); d = 2'-deoxy (DNA)

Assays:
OAT1 = system: T1, OAT1; test: OAT1 substrate uptake study in MDCK cells; type: in vitro ADME; conditions: 10 μM ASO
T1 construct: expressed in transfected cells; host or cells: MDCK-II
Experimental: (§1) A 96-well cell culture plate containing a monolayer of MDCK-II cells grown on a permeable support and a corresponding receiver tray was used. The basolateral compartment of the culture plate and wells were washed with warm HBSS three times, with wells of the culture plate serving as the apical compartment. The wash was aspirated by adding 150 μL of 37°C HBSS to both compartments. Plates were incubated at 37°C with orbital shaking at 60 rpm for 15 min for OAT1, OAT3, OCT1, OCT2, OATP1B1, and OATP1B3 (±5 min). The pre-incubation buffer from both compartments was aspirated and 150 μL of the following was added to the basal compartment. For the probe substrate transport assay, HBSS in each well contained one of following probe substrates (positive control for transport), OCT1, 2 μM [^3H]-MPP^+; OCT2, 10 μM [^14C]-metformin; OAT1, 2 μM [^3H]-p-aminohippurate; OAT3, 10 μM [^3H]-p-aminohippurate; OATP1B1, 2 μM [^3H]-estradiol-17 β-D-glucuronide; and OATP1B3, 2 μM [^3H]-cholecystokinin octapeptide (CCK-8). […] Inhibition studies contained HBSS in each well, the probe substrate, and 100 μM of each test article, whereas substrate studies contained HBSS in each well and 10 μM of each test article. […] Samples containing probe substrate were added to 200 μL of scintillation fluid and counted on a 1450 Microbeta (PerkinElmer), whereas samples containing the test article were kept frozen. Test article concentrations, including control samples, were evaluated by an LC-MS method.
(§2) Signal to noise for probe substrates was calculated by dividing the uptake of the probe substrate in transporter-expressing cells by the uptake of probe substrate in control cells not expressing the transporter of interest. Percent inhibition was calculated by dividing the net-transporter-mediated substrate uptake in the presence of the test article or the reference inhibitor by the net-transporter-mediated substrate uptake in the absence of the inhibitor according to the equation: %inhibition=100−(100×(transporter-mediateduptake)withinhibitor/(transporter-mediateduptake)withoutinhibitor).

OAT3 = system: T2, OAT3; test: OAT3 substrate uptake study in MDCK cells; type: in vitro ADME; conditions: 10 μM ASO
T2 construct: expressed in transfected cells; host or cells: MDCK-II
Experimental: as §1, §2

OCT2 = system: T3, OCT2; test: OCT2 substrate uptake study in MDCK cells; type: in vitro ADME; conditions: 10 μM ASO
T3 construct: expressed in transfected cells; host or cells: MDCK-II
Experimental: as §1, §2

OATP1B3 = system: T4, OATP1B3; test: OATP1B3 substrate uptake study in MDCK cells; type: in vitro ADME; conditions: 10 μM ASO
T4 construct: expressed in transfected cells; host or cells: MDCK-II
Experimental: as §1, §2

BCRP = system: T5, BCRP; test: BCRP substrate study, bi-directional flux in MDCK cells; type: in vitro ADME; conditions: 10 μM ASO, Papp B to A / Papp A to B
T5 construct: expressed in transfected cells; host or cells: MDCK-II cells
Experimental: MDCK-MDR1 cells and MDCK-II cells transfected with BCRP were washed with HBSS at 37°C. Wells of the culture plate served as the apical compartment, and 150 μL of HBSS solutions was added to the apical wells. These solutions also contain one of the following: vehicle (for probe substrate controls), 100 μM test article (for test article inhibition experiments), 1 μM Ko143 (for BCRP inhibition), or 3 μM elacridar (for P-gp inhibition). A 96-well receiver tray was prepared with each well containing 300 μL of buffer solution corresponding to the apical wells. Receiver tray wells served as the basal compartment. The plate and receiver tray were assembled and incubated at 37°C for 30 min. The solution was then aspirated from the apical compartment and the 96-well plate was removed from the receiver tray. Donor and receiver wells for inhibition or donor (containing substrate) and receiver (without substrate) wells for substrate studies were then prepared for bi-directional flux studies. For the probe substrate transport assays, HBSS in each donor well contained one of the following probe substrates: BCRP, 2 μM [^3H]-prazosin; or P-gp, 100 nM [^3H]-quinidine. For positive control inhibition assays, HBSS contained the reference inhibitor in both donor and receiver wells, with the probe substrate only in donor wells. […] These samples were counted on a 1450 Microbeta (PerkinElmer). For samples containing test articles, samples were quantitated using LC-MS.
For BCRP and P-gp, apparent permeability Papp was determined using the equation Papp=(Vr/(A×C0))×(Cr/Δt) whereby Papp is the apparent permeability, Vr is the volume of the receiver compartment (mL), C0 is the initial concentration of the donor solution, A is the monolayer area (cm^2), Cr is the receiver well concentration at the end of the incubation, and Δt represents the change in time from t = 0 (s). The efflux ratio (ER) was determined by dividing Papp in the B→A direction by that in the A→B direction as: ER=Papp(B→A)/Papp(A→B).

CYP2B6 = molecular target: T6, CYP2B6 (Homo sapiens, UniProt P20813); conditions: hepatocytes
T6 sequence (P20813 1-491): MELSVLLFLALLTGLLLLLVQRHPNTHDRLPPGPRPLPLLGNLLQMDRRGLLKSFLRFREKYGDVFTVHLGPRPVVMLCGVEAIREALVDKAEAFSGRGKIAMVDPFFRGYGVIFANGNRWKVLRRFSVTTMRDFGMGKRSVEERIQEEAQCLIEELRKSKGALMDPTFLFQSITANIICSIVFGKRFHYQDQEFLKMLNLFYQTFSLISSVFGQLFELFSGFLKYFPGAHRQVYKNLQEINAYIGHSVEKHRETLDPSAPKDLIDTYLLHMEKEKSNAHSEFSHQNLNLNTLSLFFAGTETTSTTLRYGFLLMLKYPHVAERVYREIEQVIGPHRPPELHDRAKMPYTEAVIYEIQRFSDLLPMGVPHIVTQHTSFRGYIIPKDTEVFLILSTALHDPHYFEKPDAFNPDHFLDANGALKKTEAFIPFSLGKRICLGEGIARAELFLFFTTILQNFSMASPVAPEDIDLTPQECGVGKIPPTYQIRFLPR
Experimental: Preincubations were performed in 50 μL of Williams’ Medium E with 2 mM salicylamide. The salicylamide was included to reduce possible phase II conjugation to the precursor phase I metabolites. […] Human hepatocytes (pooled from 5 donors) were thawed and prepared according to the vendor’s protocol. […] Incubations were carried out at 37°C with 5% CO2. The incubation time was 45 min for phenacetin, diclofenac, dextromethorphan, midazolam, bupropion, chlorzoxazone, and testosterone and 90 min for paclitaxel and (S)-mephenytoin. The reactions were stopped by adding 200 μL of ice-cold acetonitrile (can) with tolbutamide (100 ng/mL) as the internal standard to 100 μL of hepatocyte suspension (1:2, v/v). The 96-well plate was then vortexed at 1,700 rpm for 3 min and centrifuged at 3,500 rpm for 10 min at 20°C. The supernatants were analyzed using liquid chromatography-tandem MS (LC-MS/MS).

Substance	OAT1-mediated uptake relative to corresponding controls (OAT1) [fold]	OAT3-mediated uptake relative to corresponding controls (OAT3) [fold]	OCT2-mediated uptake relative to corresponding controls (OCT2) [fold]	OATP1B3-mediated uptake relative to corresponding controls (OATP1B3) [fold]	Efflux ratio, BCRP (BCRP)	IC50 (CYP2B6) [µM]
ISIS 681257: 20-mer 2′-MOE gapmer PS/PO mixed backbone ASO conjugated to 5′-trishexylamino GalNAc3, targets Lp(a), sequence TGCTCCGTTGGTGCTTGTTC (5' {GalNAc3}, sugars by position and backbone not given here; 2'-MOE gapmer with mixed PS/PO backbone)	< 2	< 2	< 2	< 2	≤ 2.0	
ISIS 420915: 20-mer 2′-MOE gapmer PS backbone antisense inhibitor of transthyretin, sequence TCTTGGTTACATGAAATCCC (all phosphorothioate, sugars by position and methylation of C not given here; 2'-MOE gapmer)	< 2	< 2	< 2	< 2	≤ 2.0	> 100
ISIS 304801: 20-mer (5-10-5) 2′-MOE gapmer PS backbone antisense inhibitor of apoC-III, sequence AGCTTCTTGTCCAGCTTTAT (sugars from the 5' end e5 d10 e5, all phosphorothioate, methylation of C not given here)	< 2	< 2	< 2	< 2	≤ 2.0	> 100
